Assay results reported in PMC6158191, “Crystal structure of the red light-activated channelrhodopsin Chrimson” (Nature Communications, 2018).

Columns and labels:
[1] = biological target: T1, C1Chrimson (called Chrimson in the structure and spectroscopy sections) (Chlamydomonas noctigama, UniProt Z9S8G4QJ52); assay: X-ray crystallography, […] Å; assay type: binding; details: covalent; Schiff base to conserved lysine; crystals at low pH, dark
T1 construct: residues 1-79 of CsChrimson replaced by CrChR1 1-76; Sf9; C-terminal TEV-EGFP-FLAG cleaved for crystals; C-terminal FLAG for spectroscopy; dimer
T1 sequence (Z9S8G4QJ52 1-347): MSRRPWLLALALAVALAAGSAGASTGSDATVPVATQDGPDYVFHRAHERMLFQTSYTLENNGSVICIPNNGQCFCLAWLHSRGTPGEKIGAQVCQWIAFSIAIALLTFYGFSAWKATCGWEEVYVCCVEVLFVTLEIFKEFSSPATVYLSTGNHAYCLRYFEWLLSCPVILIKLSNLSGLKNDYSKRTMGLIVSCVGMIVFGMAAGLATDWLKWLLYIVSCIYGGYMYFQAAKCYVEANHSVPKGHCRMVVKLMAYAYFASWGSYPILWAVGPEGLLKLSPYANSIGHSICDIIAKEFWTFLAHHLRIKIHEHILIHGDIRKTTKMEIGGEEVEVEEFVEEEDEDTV

CsChrimson = biological target: T2, CsChrimson (Chlamydomonas noctigama, UniProt Z9S8G4QJ52, , form not given); assay: whole-cell patch clamp, HEK293, photocurrent on cation exchange; assay type: cell-based; details: permeant ion; 110 mM guanidinium chloride outside replacing NaCl; 110 mM NaCl inside, pHi 7.2
T2 construct: extracellular N-terminus of Chrimson replaced by that of C. subdivisa channelrhodopsin; in pmCerulean-C1 vector; HEK293 cells; with Channelrhodopsin (Chloromonas subdivisa; N-terminal extracellular part of the same polypeptide)
T2 sequence (Z9S8G4QJ52 77-347 R159H): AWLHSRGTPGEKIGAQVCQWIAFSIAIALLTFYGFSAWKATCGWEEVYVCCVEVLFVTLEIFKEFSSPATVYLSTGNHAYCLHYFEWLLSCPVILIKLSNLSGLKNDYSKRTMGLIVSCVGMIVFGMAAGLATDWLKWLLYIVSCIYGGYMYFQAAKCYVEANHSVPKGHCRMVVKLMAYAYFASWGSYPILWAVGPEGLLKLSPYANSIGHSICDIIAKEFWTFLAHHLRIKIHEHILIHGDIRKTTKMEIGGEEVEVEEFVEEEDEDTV

[2] = biological target: C1Chrimson (Chrimson variant with the extracellular N-terminal sequence replaced by that of CrChR1) (Chlamydomonas reinhardtii | Chlamydomonas noctigama); assay: crystal structure; lipidic cubic phase (monoolein) crystals, 28-33% PEG500DME, 100 mM Na citrate pH 5.0, 100 mM Na malonate pH 7.0, 10-40 mM sarcosine; two protomers in the asymmetric unit; 2.6 Å

**Q.** CC1=C(/C=C/C(C)=C/C=C/C(C)=C/C=O)C(C)(C)CCC1 [all-trans retinal] was tested. Which “X-ray crystallography, 2.6 Å” value [1] did it give?
**A.** The value was “including the covalently attached all-trans retinal”.

**Q.** Which “whole-cell patch clamp, HEK293, photocurrent on cation exchange” value (CsChrimson) does the source give for N=C(N)N [guanidinium] here?
**A.** Its value is “ion-conducting pore of the R162H mutant is permeable to the large cation guanidinium”.

**Q.** With “C1Chrimson (Chrimson variant with the extracellular N-terminal sequence replaced by that of CrChR1)” as the compound, how does the stoichiometry N [2] read?
**A.** Its stoichiometry N is 2.
